Assay results: patent publication US8461364B2, “Polymorphs of (S)-3-aminomethyl-7-(3-hydroxy-propoxy)-3H-benzo[C][1,2]oxaborol-1-OL” (GlaxoSmithKline LLC, priority 2008, dated 2013)
One block for each compound: values may come before it.

What was measured:
Format in all cases: physicochemical
[1] = Stability study: storage of the polymorph under ambient conditions, XRPD afterwards
Source text: The HCl1 polymorph, which was a hard bulky material, was placed in a closed Amber bottle and stored under ambient conditions. Four months later, the bottle was opened, and the hard bulky material was now a free flowing powder. An XRPD was taken of this free flowing powder.

[2] = Thermogravimetric analysis (TGA); conditions: ramp 15° C./minute
Method: The sample pan was tared, and sample of (S)-3-aminomethyl-7-(3-hydroxy-propoxy)-3H-benzo[c][1,2]oxaborol-1-ol polymorph form HCl4 prepared in Example 2, Method-B, was placed in the pan. The temperature was ramped at a rate of 15° C./minute.
The TGA thermogram of polymorph form HCl3 was acquired using a TA Instruments Q500 Thermogravimetric Analyzer. The sample pan was tared, and sample of (S)-3-aminomethyl-7-(3-hydroxy-propoxy)-3H-benzo[c][1,2]oxaborol-1-ol polymorph form HCl3 prepared as described above was placed in the pan. The temperature was ramped at a rate of 15° C./minute. A weight-loss of 4.7% between 27 and 104° C. was observed and is associated with water-loss due to dehydration.

[3] = Form screen with competitive ripening experiments (Raman/XPRD grouping); conditions: for relative polymorph stability (additional studies incl. single crystal form screen): 48 solvents/solvent mixtures, four crystallization modes, room temperature
Method: Alternative methods for preparing polymorph form HCl1, form HCl2, form HCl4, and form HCl5 involve the use of a form screen procedure. The input material for the screen was a nonsolvated form of the hydrochloride salt of (S)-3-aminomethyl-7-(3-hydroxy-propoxy)-3H-benzo[c][1,2]oxaborol-1-ol. […] Screening was conducted in a total of 48 solvents/solvent mixtures using four different crystallization modes listed below. The solvents included water, methanol, 1-propanol, nitromethane, acetonitrile, dimethylsulfoxide, acetone, 2-butanone, dichloromethane, methyl acetate, […], ethyl acetate, chlorobenzene, tetrahydrofuran, 1,4-dioxane, isopropyl ether, toluene, cyclohexane, heptanes, 1-butanol, 2-propanol, trifluoroethanol, dimethyl carbonate, t-butyl methyl ether, isopropyl acetate, ethanol, 1-methoxy-2-propanol, cyclohexanone, dimethyl formamide, 2-methoxyethyl ether, methanol:5 vol % H2O, acetonitrile:5 vol % H2O, acetone:5 vol % H2O, tetrahydrofuran:5 vol % H2O, 2-propanol:5 vol % H2O, methanol:10 vol % H2O, acetonitrile:10 vol % H2O, acetone:10 vol % H2O, tetrahydrofuran:10 vol % H2O, dioxane:10 vol % H2O, 2-propanol:10 vol % H2O, isopropanol+10% dimethylsulfoxide, acetonitrile+10% dimethylsulfoxide, and n-methylpyrrolidone.
Vapor diffusions were also conducted in selected solvents. The four crystallization modes used were: • temperature-cycled ripening of slurries • rapid cooling of room-temperature solutions • room-temperature evaporation of solutions • vapor diffusion of solvent/anti-solvent combinations Characterization:
All samples from the screen were isolated and analyzed by Raman spectroscopy. The samples were then grouped based on Raman spectral match. Representative samples from each of the groups were further analyzed by additional analytical techniques as appropriate (XPRD, DSC, TG-IR, PLM, etc.).
The temperature-cycle, rapid cool, and vapor diffusion samples formed a single group (Group A/Input) based on Raman and XPRD analyses. Most evaporative samples also produced Group A. However, five additional groups (Group B, Group C, Group D, Group E, and Group F) were produced from evaporative and evaporative scale-up experiments based on Raman analyses. These groups were selected for further analysis and/or scale-up.
Group B was an evaporative experiment from nitromethane produced in very low yields (<3 mg). This sample was analyzed by Raman, XPRD, and DSC. Insufficient sample was present for TG-IR (thermogravimetric-infrared spectroscopy). Six scale-up experiments were set up and each produced an amorphous or oily solid. […]
Group C was produced from two evaporative experiments from acetone and 2-butanone in very low yields (<1 mg). This sample was analyzed by Raman, and insufficient sample was present for further analysis. […]

[4] = Differential scanning calorimetry (DSC); conditions: ramp 15° C./minute, loose lid aluminum pan
Method: Instrument: TA Instruments Thermal Analysis System, Model DSC Q100
Key Operating Parameters:
Module—DSC Standard Cell FC
Method 1: Equilibrate at 25.00° C.
The DSC thermogram was acquired using a TA Instruments Q100 Differential Scanning calorimeter, as indicated above. A sample of (S)-3-aminomethyl-7-(3-hydroxy-propoxy)-3H-benzo[c][1,2]oxaborol-1-ol polymorph form HCl4 prepared in Example 2, Method B, was accurately weighed out directly into an aluminum DSC pan. The pan was sealed by applying pressure by hand and pushing each part of the pan together (also known as a loose lid configuration). The temperature was ramped at a rate of 15° C./minute. An endothermic transition having an onset of 178.1° C. was measured, and is associated with a decomposition event.

[5] = Storage of Form HCl5 (sealed vial / room temperature)
Method: A solution of isopropanol containing 20% water by volume was added to a vial containing approximately 25 mg of polymorph form HCl4. The resulting mixture was stirred as the temperature was cycled between 0 and 40° C. over the course of 48 hours. The solution was isolated by filtration and evaporated to dryness. The freshly isolated product was verified to be Form HCl5.

Compound: Cl.NC[C@H]1OB(O)c2c(OCCCO)cccc21 [polymorph form HCl1, (S)-3-aminomethyl-7-(3-hydroxy-propoxy)-3H-benzo[c][1,2]oxaborol-1-ol.HCl]
- solid form after storage (XRPD) ([1]; closed Amber bottle, ambient conditions, four months): converted into the HCl4 form during storage

- weight-loss (water-loss due to dehydration) ([2]; between 27 and 104° C.): 4.7%
Compound: Cl.NC[C@H]1OB(O)c2c(OCCCO)cccc21 [polymorph form HCl3, (S)-3-aminomethyl-7-(3-hydroxy-propoxy)-3H-benzo[c][1,2]oxaborol-1-ol.HCl]

- relative polymorph stability ([1]; from conversion during four months storage at ambient conditions): more stable polymorph than HCl1
- stepwise weight-loss (water-loss due to reversible chemical transformation) ([2]; between 162 and 214° C.): 6.4%
- temperature beyond which further decomposition is observed [2]: > 214 °C
- relative polymorph stability (additional studies incl. single crystal form screen) [3]: most stable polymorph
- relative polymorph stability (additional studies incl. single crystal form screen) ([3]; listed as input material): most stable form at room temperature
- stability compared to other polymorphs of the HCl salt ([3]; physical and/or chemical stability, general statement): increased stability
- onset of endothermic transition associated with a decomposition event [4]: 178.1 °C
Compound: Cl.NC[C@H]1OB(O)c2c(OCCCO)cccc21 [polymorph form HCl4, (S)-3-aminomethyl-7-(3-hydroxy-propoxy)-3H-benzo[c][1,2]oxaborol-1-ol.HCl]

- form after storage ([5]; sealed vial, at least 7 days): conversion to Form HCl3
- stability of isolated form (Raman) ([3]; sample from very slow evaporation from acetone with 20% water): unstable and converted to Group E
Compound: Cl.NC[C@H]1OB(O)c2c(OCCCO)cccc21 [polymorph form HCl5, (S)-3-aminomethyl-7-(3-hydroxy-propoxy)-3H-benzo[c][1,2]oxaborol-1-ol.HCl]
- stability on storage ([5]; stored at room temperature): unstable when stored at room temperature and converts to Form HCl3
